Values of other authors as cited in patent publication US20150218090A1, “DOSAGE REGIMEN FOR AN S1P RECEPTOR MODULATOR OR AGONIST” (NOVARTIS AG, priority 2011, published 2015).

Conditions: administration of 1.25 mg of FTY720; healthy subjects

CCCCCCCCc1ccc(CCC(N)(CO)CO)cc1 [FTY720, 2-amino-2-[2-(4-octylphenyl)ethyl]propane-1,3-diol]
decrease in heart rate: approximately 8 beats/min
